The source of these data is patent publication US8840849B2, “Permeation device and method for reducing aqueous boundary layer thicknesses” (Pion, Inc., priority 2004, dated 2014).

Structures can show the parent of a compound that is named as a salt.

The nature of one series: in vitro. The text has this: Additionally, those molecular entities that are footnoted as “2” had permeability measurements obtained in an aqueous buffer and a buffer having 20 percent acetonitrile added thereto. For this example, a PAMPA Evolution instrument from pION INC of Woburn, Mass.
Solution pH was adjusted using a universal buffer as well as a buffer solution having a pH of 7.4 and containing a chemical scavenger to simulate serum proteins, which can be obtained from pION INC of Woburn, Mass. […] Donor and acceptor microtitre plates with 96 compartments were also employed for this example. The acceptor plate was obtained from Millipore Corporation of Billerica, Mass.
This approach for determining Pe is often referred to as the pKa^FLUX method.
As indicated above, the acceptor solutions contained a surfactant in order to mimic some of the function of serum proteins.
When not being stirred, a PAMPA sandwich was formed and permitted to incubate in the GUT-BOX at about 23° C. for up to several hours in an atmosphere saturated in humidity and scrubbed free of oxygen and carbon dioxide. Preferably, incubation was performed for up to about four hours. […] For example, the stirring members in FIG. 10 can be magnetized flippers that are controlled by a magnetic stirrer in the GUT-BOX, which causes the members to rotate about a horizontal axis. A speed dial for the magnetic stirrer, as described above, can be calibrated in units of thickness of the expected boundary layer rather than as standard units such as rpm.
After a permeation time in the GUT-BOX was reached, the PAMPA sandwich could then be separated and the donor and acceptor compartments studied for the amount of entity present. The amount of entity present was determined from UV measurements compared to UV spectra obtained from reference standards. The reference UV spectra were performed in a range from about 230 to 500 nanometers (nm). Moreover, mass balance was used to determine the amount of material retained by the porous support and DOUBLE-SINK GIT-0 lipid as generally described by Avdeef et al., Eur. J. Pharm.
The determination of Pe also accounted for the porous support area and its porosity. In particular, the support area of 0.3 centimeters squared (cm^2) was multiplied by the apparent porosity (εa) of the support, which was about 0.76, such as generally described by Nielsen et al., Eur. J. Pharm.
The majority of the data in Tables 1 through 5 is from unstirred assays and those stirred at about 186 rpm. […] The maximum speed used for these entities was 622 rpm.
Again, several entities were studied in a buffer comprising about 20 percent acetonitrile. These entities are footnoted as “1” in Tables 1 through 5. […] Tables 1 through 5 are provided below with Table 1 at 0 rpm, Table 2 stirred at 49 rpm, Table 3 stirred at 118 rpm, Table 4 stirred at 186 rpm and Table 5 stirred at 622 rpm. Tables 1 through 5 also include the standard deviation (SD) of determined Pu values.
The boundary layer thickness (h) in Tables 1 through 5 can be determined by […] of diffusion, which is
Pu values derived at various stirring speeds by using the pKa^FLUX method, as described above, were also subjected to a hydrodynamic analysis using the equation Pu=Kν^α in a logarithmic form. For example, FIG. 13 provides a plot of the logarithm of Pu versus the logarithm of ν comprising 36 measurements based on 14 molecular entities studied at several different stirring speeds. The intercept in such a plot is the logarithm of the stirring efficiency factor (K) with the slope being the hydrodynamic factor (α).

The conditions of series [1]: testosterone at 37° C., Karlsson et al.; dotted curve FIG. 15; cited from earlier work.
In a further series the test system is Caco-2 type cells. As to conditions: testosterone data at 22° C., Adson et al.; dashed line FIG. 15; cited from earlier work.
Where [2] appears, read: PAMPA, Pu (boundary layer permeability).
Setting [3] is: 0 rpm (unstirred), aqueous buffer, pKa^FLUX method.
Where [4] appears, read: PAMPA, Pu (boundary layer permeability), 0 rpm (unstirred), aqueous buffer, pKa^FLUX method.

The term Papp denotes a coefficient for how fast a substance crosses the barrier. The molecule `O=C(O)c1ccc2ccccc2c1` [2-naphthoic acid] returned a Papp at 50 µM in the series “in vitro” (setting [2]) of 595 ×10⁻⁶ cm/s. Take `O=C(O)Cc1cccc(O)c1` [3-hydroxyphenylacetic acid]: the apparent permeability coefficient (Papp) at 50 µM in the series “in vitro” (setting [2]) was 50 ×10⁻⁶ cm/s.

As for `CCCCN1CCN(c2cc3c(cc2F)c(=O)c(C(=O)O)cn3C2CC2)CC1C` (stereo not shown) [4′N-Bu-3′-Me-ciprofloxacin], the “Pu (boundary layer permeability)” value in “in vitro” (setting [3]) turned out to be 23. Turning to `CCN1CCN(c2cc3c(cc2F)c(=O)c(C(=O)O)cn3C2CC2)CC1C` (stereo not shown) [4′N-Et-3′-Me-ciprofloxacin], the “Pu (boundary layer permeability)” value in the series “in vitro” (setting [3]) is listed as 53. Take `CCCN1CCN(c2cc3c(cc2F)c(=O)c(C(=O)O)cn3C2CC2)CC1C` (stereo not shown) [4′N-Pr-3′-Me-ciprofloxacin]: in “in vitro” (setting [3]), the “Pu (boundary layer permeability)” value was 40. The molecule `CCCC(=O)Nc1ccc(OCC(O)CNC(C)C)c(C(C)=O)c1` (stereo not shown) [Acebutolol, acebutolol] registered a Papp at 50 µM in the series “in vitro” (setting [2]) of 63 ×10⁻⁶ cm/s.

Take `CCOC(=O)C1=C(COCCN)NC(C)=C(C(=O)OC)C1c1ccccc1Cl` (stereo not shown) [Amlodipine, amlodipine-maleate]: the Papp at 50 µM in “in vitro” (setting [2]) came out at 1380 ×10⁻⁶ cm/s. In the case of `COc1ccc(CCN2CCC(Nc3nc4ccccc4n3Cc3ccc(F)cc3)CC2)cc1` [Astemizole, astemizole], the Papp at 50 µM in the series “in vitro” (setting [2]) is 746 ×10⁻⁶ cm/s. In “in vitro” (PAMPA), `C[C@@H](CO)NC(=O)[C@@H]1C=C2c3cccc4[nH]cc(c34)C[C@H]2N(C)C1` [Ergonovine, ergonovine] displayed an apparent permeability (Papp) at 50 µM of 25 ×10⁻⁶ cm/s. Molecule `CC(C)Cc1ccc(C(C)C(=O)O)cc1` (stereo not shown) [Ibuprofen, ibuprofen] came in with a Papp at 50 µM in the series “in vitro” (setting [2]) of 40 ×10⁻⁶ cm/s. For the molecule `CCC(C)n1ncn(-c2ccc(N3CCN(c4ccc(OCC5COC(Cn6cncn6)(c6ccc(Cl)cc6Cl)O5)cc4)CC3)cc2)c1=O` (stereo not shown) [Itraconazole, itraconazole], the “Pu (boundary layer permeability)” value in the series “in vitro” (PAMPA, 50 µM) is recorded as 2210. In the series “in vitro” (setting [2]), this molecule showed a Papp at 50 µM of 1360 ×10⁻⁶ cm/s.

In “in vitro” (setting [2]), `Cc1c(OCC(F)(F)F)ccnc1C[S+]([O-])c1nc2ccccc2[nH]1` (stereo not shown) [Lansoprazole, lansoprazole] returned a Papp at 50 µM of 35 ×10⁻⁶ cm/s.

`Clc1ccc(COC(Cn2ccnc2)c2ccc(Cl)cc2Cl)c(Cl)c1` (stereo not shown) [Miconazole, miconazole-nitrate]: in “in vitro” (PAMPA, 50 µM), the “Pu (boundary layer permeability)” value worked out at 1520. In the series “in vitro” (setting [2]), this molecule showed a Papp at 50 µM of 1690 ×10⁻⁶ cm/s. In turn, `CCn1cc(C(=O)O)c(=O)c2ccc(C)nc21` [Nalidixic acid, nalidixic acid] had an apparent permeability (Papp) at 50 µM in the series “in vitro” (setting [2]) of 44 ×10⁻⁶ cm/s. For `O=C1C[C@@H](c2ccc(O)cc2)Oc2cc(O)cc(O)c21` [Naringenin, naringenin], the Papp at 50 µM in the series “in vitro” (setting [2]) was determined as 39 ×10⁻⁶ cm/s. On to `COC(=O)C1=C(C)NC(C)=C(C(=O)OCCN(C)Cc2ccccc2)C1c1cccc([N+](=O)[O-])c1` (stereo not shown) [Nicardipine, nicardipine], for which, in the series “in vitro” (setting [2]), the Papp at 50 µM stood at 1250 ×10⁻⁶ cm/s. On the same count and under the same terms, the result for `CNCCC=C1c2ccccc2CCc2ccccc21` [Nortriptyline, nortriptyline-HCl] reads 60 ×10⁻⁶ cm/s.

As for `Cc1nccn1CC1CCc2c(c3ccccc3n2C)C1=O` (stereo not shown) [Ondansetron, ondansetron], in the series “in vitro” (PAMPA), the “Pu (boundary layer permeability)” value came to 6949. In addition, the Papp at 50 µM in “in vitro” (setting [2]) was found to be 59 ×10⁻⁶ cm/s. In the series “in vitro” (setting [2]), `O=C1NC(=O)C(c2ccccc2)(c2ccccc2)N1` [Phenytoin, phenytoin-Na] showed an apparent permeability (Papp) at 50 µM of 26 ×10⁻⁶ cm/s.

Molecule `CN1C(C(=O)Nc2ccccn2)=C(O)c2ccccc2S1(=O)=O` [Piroxicam, piroxicam] displayed a Papp at 50 µM in “in vitro” (setting [2]) of 31 ×10⁻⁶ cm/s. Molecule `COc1cc2nc(N3CCN(C(=O)c4ccco4)CC3)nc(N)c2cc1OC` [Prazosin, prazosin-HCl] had a Papp at 50 µM in “in vitro” (setting [2]) of 38 ×10⁻⁶ cm/s. For the molecule `CC(C)NCC(O)COc1cccc2ccccc12` (stereo not shown) [Propranolol, propranolol-HCl], the Papp at 50 µM in “in vitro” (setting [4]) turned out to be 41 ×10⁻⁶ cm/s; in the series “in vitro” (PAMPA, Pu (boundary layer permeability), stirred at 49 rpm, aqueous buffer) it was 369 ×10⁻⁶ cm/s; in “in vitro” (PAMPA, Pu (boundary layer permeability), stirred at 118 rpm, aqueous buffer), 601 ×10⁻⁶ cm/s; in the series “in vitro” (PAMPA, Pu (boundary layer permeability), stirred at 186 rpm, aqueous buffer), 951 ×10⁻⁶ cm/s; in “in vitro” (PAMPA, Pu (boundary layer permeability), stirred at 622 rpm, aqueous buffer), 3110 ×10⁻⁶ cm/s. `CNCCCC1c2ccccc2C=Cc2ccccc21` [Protriptyline, protriptyline-HCl]: the Papp at 50 µM in “in vitro” (setting [2]) was 2150 ×10⁻⁶ cm/s.

`O=C(O)c1ccccc1O` [Salicylic acid, salicylic acid] had a Papp at 50 µM in “in vitro” (setting [2]) of 37 ×10⁻⁶ cm/s. `CC(C)(C)c1ccc(C(O)CCCN2CCC(C(O)(c3ccccc3)c3ccccc3)CC2)cc1` (stereo not shown) [Terfenadine, terfenadine] gave a Papp at 50 µM in the series “in vitro” (setting [2]) of 2440 ×10⁻⁶ cm/s. For `CCOC(=O)C1=C(CSCCN)NC(C)=C(C(=O)OC)C1c1cccc([N+](=O)[O-])c1` (stereo not shown) [Tiamdipine, tiamdipine], the “Pu (boundary layer permeability)” value in the series “in vitro” (PAMPA) came out at 951. In the series “in vitro” (setting [4]), `CC(=O)CC(c1ccccc1)c1c(O)c2ccccc2oc1=O` (stereo not shown) [Warfarin, warfarin] came in with a Papp at 50 µM of 70 ×10⁻⁶ cm/s. Molecule `CN(C)C/C=C(/c1ccc(Br)cc1)c1cccnc1` [Zimelidine, zimelidine] gave a Papp at 50 µM in the series “in vitro” (setting [2]) of 1670 ×10⁻⁶ cm/s. For `C[C@]12CC[C@H]3[C@@H](CCC4=CC(=O)CC[C@@]43C)[C@@H]1CC[C@@H]2O` [testosterone], the Daq in series [1] is 7.84e-06 cm/s; in the series on Caco-2 type cells, 5e-06 cm/s.
